Assay results taken from patent US20180110837A1, “METHODS AND ASSAYS RELATING TO MACROPHAGE DIFFERENTIATION” (THE BRIGHAM AND WOMEN'S HOSPITAL, INC., priority 2012, published 2018).
Entries after “also recorded” stand apart in the source; their conditions may differ.

Experiments:
[1] = electroretinography (ERG) after intravitreal injection; type: in vivo, Brown Norway rats; details: rats, intravitreal injections on days 0, 3 and 6
Description: On day 13, rats were dark-adapted overnight and then anesthetized. Pupils were dilated using 1% tropicamide. Methods for recording dark- and light-adapted ERGs were performed as previously described 55.

[2] = system: CNV lesions; test: laser-induced CNV in mice, lesion size in choroidal flat mounts; type: in vivo, mouse; details: for CNV lesions on day 14: treatment from day 1 or from day 7 after laser injury
Excerpt: (§1) To induce CNV, C57BL/6 mice were anesthetized and pupils were dilated with 5% phenylephrine and 0.8% tropicamide. Using a 532-nm laser (Oculight GLx, Iridex), a slit-lamp delivery system, and a cover glass as a contact lens, four spots (100 mW, 50 μm, 100 ms) were placed in each eye. The lesions were located at 3, 6, 9 and 12 o'clock, meridians centered on the optic nerve head and located 2 to 3 disk diameter from the optic nerve head. The same technique was used to induce CNV in Brown Norway rats (four spots, 150 mW, 100m, 100 ms) 53,54 and cynomolgus monkeys (700 mW, 100m, 100 ms) 29. Development of a bubble under laser radiation confirmed the rupture of the Bruch's membrane. Eyes showing hemorrhage were excluded from experiments.
(§2) Seven or fourteen days after laser injury, the size of CNV lesions was measured in choroidal flat mounts. Briefly, mice were anesthetized and perfused through the left ventricle with PBS, followed by 5 ml of 5% fluorescein isothiocyanate-dextran (FD2000S; Sigma Aldrich) in 1% gelatin. The anterior segment and retina were removed from the eyecup. The remaining retinal pigment epithelium (RPE)-choroidsclera complex was flat mounted, after relaxing radial incisions, using Mounting Medium (FM 100119, Thermo Scientific) and coverslips. Micrographs of the choroidal complex were taken with a Leica Microscope. The volume of the lesions was quantified, using confocal microscopy (Leica TCS SP2 laser scanning confocal microscope). The magnitude of the CNV lesions was determined by measuring the hyperfluorescent area with Openlab Software (Improvision). The grade of leakage was determined by Fluorescein angiography (FA).
The control animals received equivalent amounts of vehicle, glyceryl trioctanoate (91039, Sigma-Aldrich).

[3] = system: HUVEC cells; test: cytoskeletal staining (F-actin, paxillin) of HUVEC cells; type: cell-based; details: versus vehicle treated controls
Excerpt: FIG. 11A depicts HUVEC cells stained for the cytoskeletal proteins F-actin and paxillin. […] Scale bar, 20 μm. FIG. 11B depicts Western analysis of HUVECs transfected with siRNA targeting of ROCK1, ROCK2, or both. Negative control, a scramble 20-mer RNA. BlockIt (Invitrogen), a fluorescently labeled RNA to track uptake/transfection efficiency.

[4] = system: vascular leakage of CNV lesions; test: leakage from angiogenic vessels by fluorescein angiography after laser injury; type: in vivo, mice
Description: FA was performed in anesthetized Brown Norway rats from ROCK inhibitor or vehicle treated groups, using a digital fundus camera (SLO; HRA2; Heidelberg Engineering), 7 and 14 days after laser injury. Fluorescein injections were performed intravenously (0.2 ml of 2% fluorescein; Akorn, NDC 17478-253-10). Monkeys were injected with 5% fluorescein intravenously (Fluorescite, Alcon). FA images were evaluated by two masked retina specialists. The grading criteria were as follows: Grade-0, no hyperfluorescence; Grade-I, hyperfluorescence without leakage; Grade-IIA, hyperfluorescence in the early or mid-transit images and late leakage; Grade-IIB, bright hyperfluorescence in the transit images and late leakage beyond the treated areas. The Grade-IIB lesions were considered as clinically significant, as described previously 53. […] The control animals received equivalent amounts of vehicle, glyceryl trioctanoate (91039, Sigma-Aldrich).

[5] = system: CD11b/CD206 infiltrating cells in CNV; test: FACS analysis of infiltrating cells from CNV eyes; type: in vivo, mouse
Description: To examine macrophages in the retina and choroid, cells were prepared from mouse eyes. To collect a sufficient number of ocular infiltrating cells, 50 burns were delivered to mouse eyes by laser. After laser injury, eyes were enucleated at different time points (1, 2, 3, 5, and 7 days). The anterior segment (cornea, iris, and lens) was excised and the posterior segment of the eye including sclera, choroid, and retina was disrupted with scissors and then shaken in DMEM (plus 10% FBS (Gibco Laboratories), 100 U/ml penicillin, 100 μg/ml streptomycin) supplemented with 0.5 mg/ml Collagenase type D (11 088 874 103, Boehringer Mannheim) at 37° C. for 60 min. The supernatants were collected and passed through a mesh. After 3 washes, viable cells were obtained. A total of 12 eyes (6 individual pools) were examined per group. The cells were stained with PE anti-mouse CD11b (557397, BD Pharmingen), FITC antimouse CD206 (MMR, 123005; BioLegend) and PE-Cy5 anti-mouse CD80 Abs (15-0801-81, eBioscience). RAW 264.7 cells were stained with PerCP anti-mouse CD11b (101230, BioLegend), PerCP anti-mouse F4/80 (123006, BioLegend), PE anti-mouse CD80 (12-0801, eBioscience), FITC anti-mouse CD206 (141704, BioLegend). […] The control animals received equivalent amounts of vehicle, glyceryl trioctanoate (91039, Sigma-Aldrich).

[6] = molecular target: T1, ROCK1 (Homo sapiens, UniProt Q13464); details: at concentrations up to 10 μM; cited from earlier work
T1 construct: recombinant ROCK1 and ROCK2 enzymes containing the truncated catalytic domains (PV3691 and PV3759) were purchased from Invitrogen; purchased Invitrogen PV3691

[7] = in vivo; cited from earlier work
[8] = system: CNV lesions; test: laser-induced CNV in rats, intravitreal ROCK inhibition; type: in vivo, Brown Norway rats
Excerpt: as §1
as §2, with “The remaining retinal pigment epithelium (RPE)-choroidsclera complex was flat mounted, after relaxing radial incisions, using Mounting Medium (FM 100119, Thermo Scientific) and coverslips. Micrographs of the choroidal complex were taken with a Leica Microscope.” left out, “(FA). […]” for “(FA).”

[9] = system: protein kinase A and C; details: cited from earlier work
[10] = molecular target: T1, ROCK1; test: ROCK1 enzymatic activity, [γ33P]ATP / S6 kinase substrate radiometric assay (FIG. 7A); type: biochemical; details: FIG. 7B; ROCK1 versus ROCK2
[11] = molecular target: MLCK; details: read-out: Ki MLCK; cited from earlier work
[12] = system: all tested kinases; details: scale of 0 to 1; over 175 inhibitors; cited from earlier work
[13] = system: CNV lesions; test: laser-induced CNV in cynomolgus monkeys, intravitreal fasudil; type: in vivo, cynomolgus monkey
Description: Eyes from cynomolgus monkeys between 3 and 4 years of age were used in this study. Cynomolgus monkeys were restrained in a squeeze cage and injected intramuscularly in the thigh with 20 mg/kg of ketamine hydrochloride (Sankyo Yell Pharmaceutical Products Co) for general anesthesia.
Paraffin embedded sections of human eyes were deparaffinized and rehydrated with a graded alcohol series. Immunofluorescent staining was performed with antibodies (Abs) against human von Willebrandt factor (F3520, Sigma), human MMR (CD206, MAB2534, R&D Systems), human CD80 (ab53003 Abcam) or human ROCK1 (sc-17794, Santa Cruz Biotechnology) or ROCK2 (sc-1851, Santa Cruz Biotechnology) and identified with Alexa Fluor 488 (10 μg/ml, A-11055; Invitrogen) or 647 (10 μg/ml, A21244; Invitrogen) secondary Abs. On day 3 after laser injury, 10 μm frozen sections of the posterior segment were prepared. The mouse eye sections were incubated with a rat anti-mouse F4/80 mAb (MCA497R, AbD Serotec) or CD11b (550282, BD Pharmingen), and subsequently with the secondary Ab. In monkey eyes, CD68 (goat polyclonal antibody, sc-7082, Santa Cruz), vWF (rabbit polyclonal antibody, A0082, DAKO), ROCK1 (mouse monoclonal antibody, sc-17794, Santa Cruz) and ROCK2 (goat polyclonal antibody, sc-1851, Santa Cruz) were stained. Images were obtained with a Leica microscope.
To induce CNV, C57BL/6 mice were anesthetized and pupils were dilated with 5% phenylephrine and 0.8% tropicamide. Using a 532-nm laser (Oculight GLx, Iridex), a slit-lamp delivery system, and a cover glass as a contact lens, four spots (100 mW, 50 μm, 100 ms) were placed in each eye. The lesions were located at 3, 6, 9 and 12 o'clock, meridians centered on the optic nerve head and located 2 to 3 disk diameter from the optic nerve head. […]
FA was performed in anesthetized Brown Norway rats from ROCK inhibitor or vehicle treated groups, using a digital fundus camera (SLO; HRA2; Heidelberg Engineering), 7 and 14 days after laser injury. […] FA images were evaluated by two masked retina specialists. […]

[14] = IL-4, IL-10 and IL-13 injected eyes, in addition ROCK2 inhibitor treated
[15] = M1-cytokine cocktail injected eyes, in addition ROCK2 inhibitor treated
[16] = systemic treatment after laser injury
[17] = monkeys, intravitreal injections

T1 sequence (Q13464 76-338 limits assumed): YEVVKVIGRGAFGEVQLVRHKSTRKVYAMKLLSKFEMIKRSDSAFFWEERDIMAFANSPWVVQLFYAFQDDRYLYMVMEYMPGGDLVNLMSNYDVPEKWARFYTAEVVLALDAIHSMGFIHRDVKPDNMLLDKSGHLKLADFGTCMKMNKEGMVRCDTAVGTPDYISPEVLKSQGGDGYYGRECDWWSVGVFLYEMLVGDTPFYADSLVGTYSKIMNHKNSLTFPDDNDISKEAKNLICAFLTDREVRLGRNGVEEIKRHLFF

In the case of `CC(C)NC(=O)COc1cccc(-c2nc(Nc3ccc4[nH]ncc4c3)c3ccccc3n2)c1` [SLx-2119], the “changes in the electroretinogram (ERG)” value [1] is reported as “does not cause functional ERG changes”, the CNV size [2, 14] is reported as “reduced to control levels” and the CNV [2, 15] is reported as “remained unaffected”. For the same molecule, the “CNV size in adiponectin−/− mice” value ([2]; adiponectin−/− mice) was “lack of function”, the “dose at which maximum efficacy was reached” value ([2]; intraperitoneal) was 10 mg/kg and the “reduction of CNV” value ([2]; intraperitoneal, dose of 1 mg/kg) was 66%. The “CNV size” value [2, 16] was “significantly decreased”, the “CNV size” value ([2]; systemic treatment after laser injury, listed as selective ROCK2 inhibitor) was “significantly reduced” and the “CNV lesions on day 14” value ([2]; listed as ROCK2 inhibitor) was “reduced; also recorded: CNV reduction”. For the same molecule, the paxillin distribution [3] was “comparable to the control cells”, the “percentage of clinically relevant 2B leakage” value [4, 14] was “reduced to control levels” and the leakage [4, 15] was “remained unaffected”. For the same molecule, the “leakage / percentage of the clinically relevant 2B leakages” value ([4]; fluorescein angiography) was “significantly decreased”, the MaDAMs [5] was “significantly decreased” and the ROCK1 enzymatic activity [6] was “did not affect”. The “phase I clinical (toxicity) trial” value [7] was “successfully completed” and the “CNV size (day 7)” value [8] was “reduces CNV”.

For `C[C@@H](N)[C@H]1CC[C@H](C(=O)Nc2ccncc2)CC1` [Y-27632, (R)-(+)-trans-N-(4-pyridyl)-4-(1-aminoethyl)-cyclohexanecarboxamide], the “effect on protein kinase A and C” value [9] is listed as “affect”, the paxillin distribution [3] is listed as “concentrated in the nuclear or immediate perinuclear regions” and the “inhibitory activities against ROCK1 and ROCK2 compared” value [10] is listed as “equipotent”.

In the case of `Cl.O=S(=O)(c1cccc2cnccc12)N1CCCNCC1` [fasudil, 5-(1,4-diazepan-1-ylsulfonyl)isoquinoline hydrochloride], the “changes in the electroretinogram (ERG)” value [1] is given as “does not cause functional ERG changes”, the Ki [11] is given as 36 µM and the “reduction of CNV lesions compared to control” value ([2]; pan ROCK inhibition, rodents) is given as roughly 60%. The “CNV size” value [2, 16] was “significantly smaller”, the “CNV lesions on day 14” value [2] was “CNV reduction” and the “effect on protein kinase A and C” value [9] was “affect”. The gini score [12] was 0.63, the paxillin distribution [3] was “concentrated in the nuclear or immediate perinuclear regions” and the “macrophage infiltration into CNV lesions” value ([13]; monkey eyes, intravitreal injection) was “significantly reduced”. For the same molecule, the CNV membrane thickness [13, 17] was “significantly reduced”, the “percentage of the clinically relevant 2B leakages” value [13, 17] was “significantly reduced” and the “inhibitory activities against ROCK1 and ROCK2 compared” value [10] was “equipotent”. The “CNV size (day 7)” value [8] was “reduces CNV”.
